Measurements published in patent publication US6313110A, “Substituted 2H-1,3-diazapin-2-one useful as an HIV protease inhibitor” (priority 2000, dated 2001).
Like-named read-outs stand apart in the source and are kept apart here.

Tested on: HIV-1 (RF) in MT-2 cells
Test: HIV RNA assay: antiviral potency in HIV-1 (RF) infected MT-2 cells (reduction of HIV RNA level)
Assay type: cell-based
Description: Plasmid pDAB 72 containing both gag and pol sequences of BH10 (bp 113-1816) cloned into PTZ 19R was prepared according to Erickson-Viitanen et al. AIDS Research and Human Retroviruses 1989, 5, 577. The plasmid was linearized with Bam HI prior to the generation of in vitro RNA transcripts using the Riboprobe Gemini system II kit (Promega) with T7 RNA polymerase. Synthesized RNA was purified by treatment with RNase free DNAse (Promega), phenol-chloroform extraction, and ethanol precipitation. RNA transcripts were dissolved in water, and stored at -70° C. The concentration of RNA was determined from the A260.
Biotinylated capture probes were purified by HPLC after synthesis on an Applied Biosystems (Foster City, Calif.) DNA synthesizer by addition of biotin to the 5' terminal end of the oligonucleotide, using the biotin-phosphoramidite reagent of Cocuzza, Tet. Lett. 1989, 30, 6287. […]
MT-2 and MT-4 cells were maintained in RPMI 1640 supplemented with 5% fetal calf serum (FCS) for MT-2 cells or 10% FCS for MT-4 cells, 2 mM L-glutamine and 50 μg/mL gentamycin, all from Gibco. […] Infectious titers of HIV-1(RF) stocks were 1-3×10^7 PFU (plaque forming units)/mL as measured by plaque assay on MT-2 cells (see below). […]

| Compound | IC90 (Human immunodeficiency virus 1, MT2, 72 h, 3 days culture at 37° C., read-out: IC90 (concentration of compound required to reduce the HIV RNA level by 90%)) [nM] | IC90 (Human immunodeficiency virus 1, MT2, ddC reference, dilutions of virus selected to give this IC90, read-out: IC90 (concentration of compound required to reduce the HIV RNA level by 90%)) [µg/mL] |
| --- | --- | --- |
| Nc1cccc(CN2C(=O)N(Cc3ccc4[nH]ncc4c3)[C@H](Cc3ccccc3)[C@H](O)[C@@H](O)[C@H]2Cc2ccccc2)c1 [Example 1, (4R,5S,6S,7R)-hexahydro-1-[(indazol-5-yl)methyl]-5,6-dihydroxy-4,7-bis[phenylmethyl]-3-(3-aminophenyl)methyl-2H-1,3-diazapin-2-one] | < 50 |  |
| Nc1ccn([C@H]2CC[C@@H](CO)O2)c(=O)n1 [ddC, dideoxycytidine] |  | 0.2 |
